Results from the NIST ThermoML archive (doi:10.1016/j.jct.2016.12.034).

Conditions: Crystal; for vapor or sublimation pressure: Transpiration method

CC(=O)Nc1ccc(/C=N/NC(N)=S)cc1 [Thioacetazone]
Conditions	Normal melting temperature [°C]	vapor or sublimation pressure [kPa]
404.15 K	–	1.89e-05
406.15 K	–	2.23e-05
408.15 K	–	2.81e-05
410.15 K	–	3.67e-05
412.15 K	–	4.46e-05
415.15 K	–	6.04e-05
417.15 K	–	7.03e-05
420.15 K	–	0.0001125
423.15 K	–	0.0001414
425.15 K	–	0.0001651
427.15 K	–	0.0002376
429.15 K	–	0.0002851
DTA	229.00	–
